From patent US20150299143A1, “SUBSTITUTED TRIAZOLE AND IMIDAZOLE COMPOUNDS” (HOFFMANN-LA ROCHE INC., priority 2012, published 2015)
Like-named read-outs stand apart in the source and are kept apart here.

How the values were obtained:
[1] = target: T1, β 1i (caspase-like) (Homo sapiens, UniProt P28065+P40306); experiment: Cell-Based Proteasome subunit activity/selectivity assay, β1i, substrate (PAL)2Rh110
T1 construct: protease activity associated with the proteasome complex in cultured cells; endogenous in cells; host or cells: Ramos cells
Source text: (§1) Cell-Based Proteasome Activity/Selectivity Assay
(§2) The Cell-Based Proteasome subunit activity/selectivity assay was a panel of 5 fluorogenic assays that independently measured the activity of β5c or β 5i (chymotrypsin-like activity), β 2c/2i (trypsin-like), and β 1c or β 1i (caspase-like) protease activity associated with the proteasome complex in cultured cells. Specifically, the following substrates were used for respective subunit activities: β 1i (PAL)2Rh110, β 1c: (LLE)2 Rh110, β 2c/2i: (KQL)2Rh110, β 5c: (WLA)2Rh110, β 5i: (ANW)2Rh110. The following procedure was followed:
(§3) Added 0.5 μl of 100× 4-fold serial diluted test compounds or DMSO to each well. Highest concentration of compound tested was 20 μM, thus compound serial dilution started from […]. Incubated for 30 minutes at 37° C. Then equilibrated at room temperature for 15 minutes. […] Shaked for one minute @ 700 rpm. Incubated for 120 min at room temperature. Then read the plates with an Envision multilabel plate reader (PerkinElmer) with 500 nm excitation/519 nm emission.

[2] = target: T2, β5c (chymotrypsin-like activity) (Homo sapiens, UniProt P20618+P28074); experiment: Cell-Based Proteasome subunit activity/selectivity assay, β5c, substrate (WLA)2Rh110
T2 construct: protease activity associated with the proteasome complex in cultured cells; endogenous in cells; host or cells: Ramos cells
Source text: as §1, §2, §3

[3] = target: T3, β 5i (chymotrypsin-like activity) (Homo sapiens, UniProt P20618+P28062); experiment: Cell-Based Proteasome subunit activity/selectivity assay, β5i, substrate (ANW)2Rh110; conditions: Ramos cells; substrate (ANW)2Rh110 (β5i); highest concentration tested 20 μM; read-out: Ic50:ramos:ac-(anw)2-r110
T3 construct: protease activity associated with the proteasome complex in cultured cells; endogenous in cells; host or cells: Ramos cells
Source text: as §1, §2, §3

[4] = target: T4, β 1c (caspase-like) (Homo sapiens, UniProt P28072+Q99436); experiment: Cell-Based Proteasome subunit activity/selectivity assay, β1c, substrate (LLE)2Rh110
T4 construct: protease activity associated with the proteasome complex in cultured cells; endogenous in cells; host or cells: Ramos cells
Source text: as §1, §2, §3

[5] = tested on: β 2c/2i (trypsin-like); experiment: Cell-Based Proteasome subunit activity/selectivity assay, β2c/2i, substrate (KQL)2Rh110; conditions: Ramos cells; substrate (KQL)2Rh110 (β2c/2i); highest concentration tested 20 μM
Source text: as §1, §2, §3

[6] = Ramos cells, substrate (PAL)2Rh110 (β1i), highest concentration tested 20 μM, read-out: Ic50:ramos:rh110-(pal)2
[7] = Ramos cells, substrate (WLA)2Rh110 (β5c), highest concentration tested 20 μM, read-out: Ic50:ramos:rh110-(wla)2
[8] = Ramos cells, substrate (LLE)2Rh110 (β1c), highest concentration tested 20 μM, read-out: Ic50:ramos:rh110-(lle)2

Row | IC50 [1, 6] | IC50 [2, 7] | IC50 [3] | IC50 [4, 8] | IC50 [5] | IC50 [1] | IC50 [2] | IC50 [4] | Compound
1 | ≥ 20 µM | ≥ 20 µM | 0.947 µM | 17.8 µM | ≥ 20 µM | – | – | – | COc1ccc(C(C#N)NC(=O)c2cn(CCNC(=O)c3ccc(OC)c(OC)c3OC)nn2)cn1 (stereo not shown) [Example 65, 1-[2-(2,3,4-Trimethoxy-benzoylamino)-ethyl]-1H-[1,2,3]triazole-4-carboxylic acid [cyano-(6-methoxy-pyridin-3-yl)-methyl]-amide]
2 | ≥ 20 µM | ≥ 20 µM | 8.75 µM | ≥ 20 µM | ≥ 20 µM | – | – | – | COc1ccc(C(=O)CNC(=O)c2cn(CCNC(=O)c3ccc(OC)c(OC)c3OC)nn2)cc1 [Example 77, 1-[2-(2,3,4-Trimethoxy-benzoylamino)-ethyl]-1H-[1,2,3]triazole-4-carboxylic acid [2-(4-methoxy-phenyl)-2-oxo-ethyl]-amide]
3 | ≥ 20 µM | ≥ 20 µM | 3.15 µM | ≥ 20 µM | ≥ 20 µM | – | – | – | CCc1ccc(C(C#N)NC(=O)c2cn(CCNC(=O)c3cc(S(C)(=O)=O)ccc3OC)nn2)cc1 (stereo not shown) [Example 42, 1-[2-(5-Methanesulfonyl-2-methoxy-benzoylamino)-ethyl]-1H-[1,2,3]triazole-4-carboxylic acid [cyano-(4-ethyl-phenyl)-methyl]-amide]
4 | ≥ 20 µM | ≥ 20 µM | 0.497 µM | ≥ 20 µM | ≥ 20 µM | – | – | – | COc1cc(C(F)(F)F)ccc1C(=O)NCCn1cnc(C(=O)NC(C#N)c2ccc(Br)cc2)c1 (stereo not shown) [Example 93, 1-[2-(2-Methoxy-4-trifluoromethyl-benzoylamino)-ethyl]-1H-imidazole-4-carboxylic acid [(4-bromo-phenyl)-cyano-methyl]-amide]
5 | ≥ 20 µM | ≥ 20 µM | 6.49 µM | ≥ 20 µM | ≥ 20 µM | – | – | – | COc1ccc(C(=O)NCCn2cc(C(=O)NCc3ccc(Cl)cc3)nn2)c(OC)c1OC [Example 5, 1-[2-(2,3,4-Trimethoxy-benzoylamino)-ethyl]-1H-[1,2,3]triazole-4-carboxylic acid 4-chloro-benzylamide]
6 | – | – | 6.49 µM | – | ≥ 20 µM | ≥ 20 µM | ≥ 20 µM | ≥ 20 µM | COc1ccc(C(=O)NCCn2cc(C(=O)NC(C#N)c3cccc4ccccc34)nn2)c(OC)c1OC (stereo not shown) [Example 57, 1-[2-(2,3,4-Trimethoxy-benzoylamino)-ethyl]-1H-[1,2,3]triazole-4-carboxylic acid (cyano-naphthalen-1-yl-methyl)-amide]
7 | ≥ 20 µM | 19.9 µM | 1.39 µM | ≥ 20 µM | ≥ 20 µM | – | – | – | Cc1ccc(C(=O)NCCn2cc(C(=O)NC(C#N)c3ccc(C(F)(F)F)cc3)nn2)c(F)c1 (stereo not shown) [Example 75, 1-[2-(2-Fluoro-4-methyl-benzoylamino)-ethyl]-1H-[1,2,3]triazole-4-carboxylic acid [cyano-(4-trifluoromethyl-phenyl)-methyl]-amide]
8 | ≥ 20 µM | ≥ 20 µM | 0.619 µM | ≥ 20 µM | ≥ 20 µM | – | – | – | COc1ccc(C(=O)NCCn2cc(C(=O)NC(C#N)c3ccc(C(F)(F)F)cc3)nn2)c(OC)c1OC (stereo not shown) [Example 60, 1-[2-(2,3,4-Trimethoxy-benzoylamino)-ethyl]-1H-[1,2,3]triazole-4-carboxylic acid [cyano-(4-trifluoromethyl-phenyl)-methyl]-amide]
9 | ≥ 20 µM | ≥ 20 µM | 4.29 µM | ≥ 20 µM | ≥ 20 µM | – | – | – | CCc1ccc(C(C#N)NC(=O)c2cn(CCNC(=O)CC3Cc4ccccc4C3)nn2)cc1 (stereo not shown) [Example 9, 1-[2-(2-Indan-2-yl-acetylamino)-ethyl]-1H-[1,2,3]triazole-4-carboxylic acid [cyano-(4-ethyl-phenyl)-methyl]-amide]
10 | ≥ 20 µM | ≥ 20 µM | 2.9 µM | ≥ 20 µM | ≥ 20 µM | – | – | – | COc1ccc(C(=O)NCCn2cc(C(=O)NCc3ccc(C)cc3)nn2)c(OC)c1OC [Example 3, 1-[2-(2,3,4-Trimethoxy-benzoylamino)-ethyl]-1H-[1,2,3]triazole-4-carboxylic acid 4-methyl-benzylamide]
11 | ≥ 20 µM | ≥ 20 µM | 2.93 µM | ≥ 20 µM | ≥ 20 µM | – | – | – | CCc1ccc(C(C#N)NC(=O)c2cn(CCNC(=O)c3ccc(Cl)cn3)nn2)cc1 (stereo not shown) [Example 44, 5-Chloro-pyridine-2-carboxylic acid [2-(4-{[cyano-(4-ethyl-phenyl)-methyl]-carbamoyl}-[1,2,3]triazol-1-yl)-ethyl]-amide]
12 | ≥ 20 µM | ≥ 20 µM | 0.15 µM | ≥ 20 µM | ≥ 20 µM | – | – | – | COc1ccc(C(=O)NCCn2cc(C(=O)NC(C#N)c3ccc(SC)cc3)nn2)c(OC)c1OC (stereo not shown) [Example 2, 1-[2-(2,3,4-Trimethoxy-benzoylamino)-ethyl]-1H-[1,2,3]triazole-4-carboxylic acid [cyano-(4-methylsulfanyl-phenyl)-methyl]-amide]
13 | ≥ 20 µM | 8.6 µM | 0.461 µM | ≥ 20 µM | ≥ 20 µM | – | – | – | COc1ccc(C(=O)NCCn2cc(C(=O)N[C@@H](Cc3ccccc3)C(=O)C(=O)NCc3ccccc3)nn2)c(OC)c1OC [Example 88, 1-[2-(2,3,4-Trimethoxy-benzoylamino)-ethyl]-1H-[1,2,3]triazole-4-carboxylic acid ((S)-1-benzyl-2-benzylcarbamoyl-2-oxo-ethyl)-amide]
14 | ≥ 20 µM | ≥ 20 µM | 1.16 µM | ≥ 20 µM | ≥ 20 µM | – | – | – | CCc1ccc(CNC(=O)c2cn(CCNC(=O)c3ccc(OC)c(OC)c3OC)nn2)cc1 [Example 7, 1-[2-(2,3,4-Trimethoxy-benzoylamino)-ethyl]-1H-[1,2,3]triazole-4-carboxylic acid 4-ethyl-benzylamide]
15 | ≥ 20 µM | ≥ 20 µM | 0.19 µM | ≥ 20 µM | ≥ 20 µM | – | – | – | CCc1ccc(C(C#N)NC(=O)c2cn(CCNC(=O)c3cc(Cl)ccc3Cl)nn2)cc1 (stereo not shown) [Example 14, 1-[2-(2,5-Dichloro-benzoylamino)-ethyl]-1H-[1,2,3]triazole-4-carboxylic acid [cyano-(4-ethyl-phenyl)-methyl]-amide]
16 | ≥ 20 µM | ≥ 20 µM | 0.05 µM | ≥ 20 µM | ≥ 20 µM | – | – | – | N#CC(NC(=O)c1cn(CCNC(=O)c2ccc(C(F)(F)F)cc2F)nn1)c1ccc(C2CC2)cc1 (stereo not shown) [Example 76, 1-[2-(2-Fluoro-4-trifluoromethyl-benzoylamino)-ethyl]-1H-[1,2,3]triazole-4-carboxylic acid [cyano-(4-cyclopropyl-phenyl)-methyl]-amide]
17 | ≥ 20 µM | 5.49 µM | 0.491 µM | ≥ 20 µM | ≥ 20 µM | – | – | – | CCc1ccc(C(C#N)NC(=O)c2cn(CCNC(=O)c3ccc(OC)nc3OC)nn2)cc1 (stereo not shown) [Example 35, N-[2-(4-{[Cyano-(4-ethyl-phenyl)-methyl]-carbamoyl}-[1,2,3]triazol-1-yl)-ethyl]-2,6-dimethoxy-nicotinamide]
18 | ≥ 20 µM | 16.1 µM | 0.134 µM | ≥ 20 µM | ≥ 20 µM | – | – | – | CCc1ccc(C(C#N)NC(=O)c2cn(CCNC(=O)c3ccc(Cl)cc3F)nn2)cc1 (stereo not shown) [Example 31, 1-[2-(4-Chloro-2-fluoro-benzoylamino)-ethyl]-1H-[1,2,3]triazole-4-carboxylic acid [cyano-(4-ethyl-phenyl)-methyl]-amide]
19 | ≥ 20 µM | 7.67 µM | 1.49 µM | ≥ 20 µM | ≥ 20 µM | – | – | – | CCc1ccc(C(C#N)NC(=O)c2cn(CCN3Cc4cc(OC)ccc4C3=O)nn2)cc1 (stereo not shown) [Example 47, 1-[2-(5-Methoxy-1-oxo-1,3-dihydro-isoindol-2-yl)-ethyl]-1H-[1,2,3]triazole-4-carboxylic acid [cyano-(4-ethyl-phenyl)-methyl]-amide]
20 | ≥ 20 µM | ≥ 20 µM | 0.447 µM | ≥ 20 µM | ≥ 20 µM | – | – | – | CCOC(=O)[C@H](CCc1ccccc1)NC(=O)c1cn(CCNC(=O)c2ccc(OC)c(OC)c2OC)nn1 [Example 80, (S)-4-Phenyl-2-({1-[2-(2,3,4-trimethoxy-benzoylamino)-ethyl]-1H-[1,2,3]triazole-4-carbonyl}-amino)-butyric acid ethyl ester]
